{"source": "paper PMC5107945", "about": "“Abscinazole-E3M, a practical inhibitor of abscisic acid 8′-hydroxylase for improving drought tolerance” (Scientific Reports, 2016)", "key": {"[1]": {"target": "T1, Arabidopsis recombinant CYP707A3 (ABA 8′-hydroxylase) (Arabidopsis thaliana, UniProt Q9FH76)", "T1 construct": "made in house; host or cells: Escherichia coli (microsomal/membrane fraction)", "T1 sequence (Q9FH76 1-463)": "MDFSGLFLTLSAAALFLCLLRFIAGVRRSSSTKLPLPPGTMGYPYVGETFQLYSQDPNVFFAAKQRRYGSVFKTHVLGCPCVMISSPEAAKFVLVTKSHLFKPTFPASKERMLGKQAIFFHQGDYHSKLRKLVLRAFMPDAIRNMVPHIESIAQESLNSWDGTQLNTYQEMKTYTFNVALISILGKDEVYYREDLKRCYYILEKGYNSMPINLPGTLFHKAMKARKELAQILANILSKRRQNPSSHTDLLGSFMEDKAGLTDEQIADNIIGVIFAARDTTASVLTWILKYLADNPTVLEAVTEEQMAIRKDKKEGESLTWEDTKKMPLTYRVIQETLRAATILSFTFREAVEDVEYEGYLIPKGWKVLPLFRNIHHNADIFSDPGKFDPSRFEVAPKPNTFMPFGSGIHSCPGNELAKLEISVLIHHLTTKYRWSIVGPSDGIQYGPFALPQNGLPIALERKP", "assay": "CYP707A3 inhibition assay (decrease of enzymatic product PA)", "type": "biochemical", "conditions": "Arabidopsis recombinant CYP707A3 expressed in E. coli", "method": "The inhibitory activities of Abz-T compounds against ABA 8′-hydroxylase were examined using recombinant Arabidopsis CYP707A3 co-expressed with Arabidopsis P-450 reductase (ATR1) in Escherichia coli[22]. The activity levels were evaluated based on the decrease in the amount of the enzymatic product, PA.\nReactions were initiated by adding NADPH, stopped by the addition of 25 μL of 1 M NaOH and then acidified with 50 μL of 1 M HCl. Reaction products were extracted by loading the mixture onto an Oasis HLB cartridge (1 mL, 30 mg; Waters Corp., Milford, MA, USA) and were washed with 1 mL of 10% MeOH in H2O (v/v) containing 1% acetic acid (AcOH, v/v). The enzyme products were then eluted with 1 mL of MeOH containing 1% AcOH, and the eluate was concentrated in vacuo. Each dried sample was then dissolved in 50 μL of MeOH, and a 20-μL volume was subjected to HPLC (Prominence; Shimadzu Corp., Kyoto, Japan). HPLC conditions were as follows: the octadecylsilyl column was composed of Hydrosphere C18 (150 × 6.0 mm, YMC Co., Ltd., Kyoto, Japan), and the solvent comprised 17% acetonitrile (MeCN) in H2O containing 0.05% AcOH (v/v). The flow rate was 1.0 mL min^−1, and detection was at 254 nm. Enzyme activity was evaluated by determining the amount of PA in control experiments prior to taking each set of measurements. The inhibition constants were determined using the Enzyme Kinetics module of the SigmaPlot 10 software (Systat Software, Inc., San Jose, CA, USA) after determining the inhibition mode by plotting the reaction velocity in the presence and absence of the inhibitor on a double-reciprocal plot. The inhibition ratio was defined as [(A − B)/A] × 100, where A = the amount of PA when the inhibitor was absent from the reaction mixture (control), and B = the amount of PA when the inhibitor was present. All of the tests were conducted at least three times."}, "endogenous ABA level": {"tested_on": "endogenous ABA level", "assay": "Endogenous ABA levels in maize", "type": "in vivo, Maize (cv. Gold rush)", "conditions": "maize 2-week-old seedlings, roots dipped in 100 μM overnight, aerial shoot tissues"}, "maize stomatal movement": {"tested_on": "maize stomatal movement", "assay": "Thermal imaging and transpirational water loss analysis in maize", "type": "in vivo", "conditions": "10 mL of 100 μM sprayed per plant, overnight", "method": "The effects of (-)-Abz-[…] were also determined relative to stomatal apertures. Arabidopsis grown in soil pots underwent moderate drought stress under the optimal growth conditions of 22 °C and 60% relative humidity. Under these growth conditions, the leaf surface temperature of the mock-treated controls was 19.5 °C, which was lower than the surrounding atmospheric temperature because of transpirational water loss (Fig. 6a,b)[30]. […] Finally, we examined the effects of (-)-Abz-[…] on drought tolerance under more practical conditions. Three-week-old Arabidopsis were sprayed with an aqueous solution containing 50 μM (-)-Abz-[…]. Water was not supplied for 12 days, and then the plants were rehydrated. […] We also tested the effects of (-)-Abz-[…] on a monocot crop, maize, to evaluate whether (-)-Abz-[…] affected stomatal movement and enhanced ABA response across plant species. […] Thus, the effects of (-)-Abz-[…] were not restricted to the model plant Arabidopsis. Figure 7 Effects of (-)-Abz-[…] on maize. (a) Thermal images of the leaf surface temperatures of (-)-Abz-[…]-treated maize plants. (b) Leaf surface temperatures of (-)-Abz-[…]-treated maize plants. The stomatal conductance (c) and transpiration rate (d) in (-)-Abz-[…]-treated maize at different light intensities. […] Values are means with s.d. (n = 4 for leaf surface temperature, n = 3 for stomatal conductance and transpiration rate). (e) Effects of (-)-Abz-[…] on endogenous ABA levels. (f) Expression levels of ZmLEA, Zm.12309.1.S and ZmCOR410 after the (-)-Abz-[…] treatment. […] After an overnight incubation, the conductance and transpiration rate were analysed using an LI-6400 (Li-Cor Biosciences), and the leaf surface temperatures were measured using a thermal imaging camera ([…], Nippon Avionics Co., Ltd.) in the glass house. Temperatures on the leaf surfaces were analysed by NS9200 software (Nippon Avionics Co., Ltd.)."}}, "note": "pIC50, pKi: −log10 of the molar value."}
{"substance": "abscinazole-E3M [(−)-6]", "values": [{"measurement": "pIC50", "setting": "[1]; 5 μM ABA as substrate, read-out: CYP707A IC50", "value": 7.19}, {"measurement": "pKi", "setting": "[1]; ABA 1–64 μM, read-out: CYP707A KI", "value": 7.46}, {"measurement": "Endogenous ABA levels", "setting": "endogenous ABA level", "value": "increased the endogenous ABA levels"}, {"measurement": "Leaf surface temperature", "setting": "maize stomatal movement", "value": "increased the leaf surface temperature"}, {"measurement": "Stomatal conductance", "setting": "maize stomatal movement", "value": "suppressed"}, {"measurement": "Transpiration rate", "setting": "maize stomatal movement", "value": "suppressed"}]}
